Experimental findings from patent US12448399B2, “Cereblon-based KRAS degrading PROTACs and uses related thereto” (Arvinas Operations, Inc., priority 2023, dated 2025) are described below.

In this experiment the target is T1, KRas-G12D (Homo sapiens, UniProt P01116, G12D).
T1 construct: insert the HiBiT tag onto the N-terminus of one or more of the endogenous KRas alleles; host or cells: AsPC-1 HiBiT-KRasG12D knock-in clone (one tagged allele, two untagged KRasG12D alleles)
Kind of experiment: HiBiT Degradation Assay (G12D), AsPC-1 HiBiT-KRasG12D cells, 24 hr. The format is cell-based. The following applies: for Dmax: ASPC1, AsPC-1 cells, maximum degradation observed; for DC50: AsPC-1 cells. In outline:
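Degradation was read after 24 hr compound exposure (0.5% DMSO, 37° C) by Nano-Glo HiBiT lytic luminescence in AsPC-1 cells carrying a HiBiT tag on one of three KRasG12D alleles. Signal relative to DMSO gave DC50 and Dmax by 4-parameter fit; alamar blue fluorescence monitored cytotoxicity.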
Background: The HiBiT peptide binds its large partner to form an active luciferase.

Bounds are passed on as bounds.

T1 sequence (P01116 1-188 isoform P01116-2 G12D): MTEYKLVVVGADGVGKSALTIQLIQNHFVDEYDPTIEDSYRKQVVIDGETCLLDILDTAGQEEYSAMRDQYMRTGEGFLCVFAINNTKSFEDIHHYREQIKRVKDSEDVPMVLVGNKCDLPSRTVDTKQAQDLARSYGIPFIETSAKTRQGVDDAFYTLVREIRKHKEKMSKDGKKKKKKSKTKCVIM

As usually defined, the Dmax is the largest share of the target that was removed. One may read the DC50 as the concentration giving 50% degradation. Higher therefore signals a less potent degrader. For `C#Cc1c(F)ccc2cc(O)cc(-c3ncc4c(N5CC6CCC(C5)N6)nc(OC[C@@H]5C[C@@H](OC6CCN(CC7CCN(c8ccc9c(c8F)n(C)c(=O)n9C8CCC(=O)NC8=O)CC7)CC6)CN5C)nc4c3F)c12` (stereo partly drawn) [Compound 213, 3-(5-{4-[(4-{[(3R,5S)-5-{[(4-{3,8-diazabicyclo[3.2.1]octan-3-yl}-7-(8-ethynyl-7-fluoro-3-hydroxynaphthalen-1-yl)-8-fluoropyrido[4,3-d]pyrimidin-2-yl)oxy]methyl}-1-methylpyrrolidin-3-yl]oxy}piperidin-1-yl)methyl]piperidin-1-yl}-4-fluoro-3-methyl-2-oxo-2,3-dihydro-1H-1,3-benzodiazol-1-yl)piperidine-2,6-dione], the maximal degradation (Dmax) is > 70% and the half-maximal degradation concentration (DC50) is < 5.1 µM.
As for `C#Cc1c(F)ccc2cc(O)cc(-c3ncc4c(N5CC6CCC(C5)N6)nc(OCCN5CCC(CC6CCN(CC7CCN(c8ccc9c(c8F)CN([C@H]8CCC(=O)NC8=O)C9=O)CC7)CC6)CC5)nc4c3F)c12` [Compound 214, (3S)-3-{5-[4-({4-[(1-{2-[(4-{3,8-diazabicyclo[3.2.1]octan-3-yl}-7-(8-ethynyl-7-fluoro-3-hydroxynaphthalen-1-yl)-8-fluoropyrido[4,3-d]pyrimidin-2-yl)oxy]ethyl}piperidin-4-yl)methyl]piperidin-1-yl}methyl)piperidin-1-yl]-4-fluoro-1-oxo-2,3-dihydro-1H-isoindol-2-yl}piperidine-2,6-dione], the Dmax is > 70% and the 50% degradation concentration (DC50) is < 5.1 µM.
For `C#Cc1c(F)ccc2cc(O)cc(-c3ncc4c(N5CC6CCC(C5)N6)nc(OCCN5CCC(CC6CCN(CC7CCN(c8ccc9c(c8)CN([C@H]8CCC(=O)NC8=O)C9=O)CC7)CC6)CC5)nc4c3F)c12` [Compound 215, (3S)-3-{5-[4-({4-[(1-{2-[(4-{3,8-diazabicyclo[3.2.1]octan-3-yl}-7-(8-ethynyl-7-fluoro-3-hydroxynaphthalen-1-yl)-8-fluoropyrido[4,3-d]pyrimidin-2-yl)oxy]ethyl}piperidin-4-yl)methyl]piperidin-1-yl}methyl)piperidin-1-yl]-1-oxo-2,3-dihydro-1H-isoindol-2-yl}piperidine-2,6-dione], in that order: > 70% and < 5.1 µM.
For `C#Cc1c(F)ccc2cc(O)cc(-c3ncc4c(N5CC6CCC(C5)N6)nc(OCCN5CCC(CC6CCN(CC7CCN(c8ccc9c(c8)CN([C@@H]8CCC(=O)NC8=O)C9=O)CC7)CC6)CC5)nc4c3F)c12` [Compound 216, (3R)-3-{5-[4-({4-[(1-{2-[(4-{3,8-diazabicyclo[3.2.1]octan-3-yl}-7-(8-ethynyl-7-fluoro-3-hydroxynaphthalen-1-yl)-8-fluoropyrido[4,3-d]pyrimidin-2-yl)oxy]ethyl}piperidin-4-yl)methyl]piperidin-1-yl}methyl)piperidin-1-yl]-1-oxo-2,3-dihydro-1H-isoindol-2-yl}piperidine-2,6-dione], in that order: > 70% and < 5.1 µM.
For `C#Cc1c(F)ccc2cc(O)cc(-c3ncc4c(N5CC6CCC(C5)N6)nc(OCCN5CCC(CC6CCN(CC7CCN(c8ccc9c(c8F)n(C(C)C)c(=O)n9C8CCC(=O)NC8=O)CC7)CC6)CC5)nc4c3F)c12` (centres unmarked) [Compound 217, 3-{5-[4-({4-[(1-{2-[(4-{3,8-diazabicyclo[3.2.1]octan-3-yl}-7-(8-ethynyl-7-fluoro-3-hydroxynaphthalen-1-yl)-8-fluoropyrido[4,3-d]pyrimidin-2-yl)oxy]ethyl}piperidin-4-yl)methyl]piperidin-1-yl}methyl)piperidin-1-yl]-4-fluoro-2-oxo-3-(propan-2-yl)-2,3-dihydro-1H-1,3-benzodiazol-1-yl}piperidine-2,6-dione] the same measures were > 70% and < 5.1 µM.
Take `C#Cc1c(F)ccc2cc(O)cc(-c3ncc4c(N5CC6CCC(C5)N6)nc(OCCN5CCC6(CC5)CCN(CC5CCN(c7ccc8c(c7)n(C)c(=O)n8C7CCC(=O)NC7=O)CC5)CC6)nc4c3F)c12` (centres unmarked) [Compound 218, 3-(5-{4-[(9-{2-[(4-{3,8-diazabicyclo[3.2.1]octan-3-yl}-7-(8-ethynyl-7-fluoro-3-hydroxynaphthalen-1-yl)-8-fluoropyrido[4,3-d]pyrimidin-2-yl)oxy]ethyl}-3,9-diazaspiro[5.5]undecan-3-yl)methyl]piperidin-1-yl}-3-methyl-2-oxo-2,3-dihydro-1H-1,3-benzodiazol-1-yl)piperidine-2,6-dione]: the Dmax is > 70% and the DC50 was < 5.1 µM.
For `C#Cc1c(F)ccc2cc(O)cc(-c3ncc4c(N5CC6CCC(C5)N6)nc(OCCN5CCC(CN6CCN(CC7CCN(c8ccc9c(c8Cl)CN(C8CCC(=O)NC8=O)C9=O)CC7)CC6)CC5)nc4c3F)c12` (centres unmarked) [Compound 219, 3-[4-chloro-5-[4-[[4-[[1-[2-[4-(3,8-diazabicyclo[3.2.1]octan-3-yl)-7-(8-ethynyl-7-fluoro-3-hydroxy-1-naphthyl)-8-fluoro-pyrido[4,3-d]pyrimidin-2-yl]oxyethyl]-4-piperidyl]methyl]piperazin-1-yl]methyl]-1-piperidyl]-1-oxo-isoindolin-2-yl]piperidine-2,6-dione] the same measures were > 70% and < 5.1 µM.
For `C#Cc1c(F)ccc2cc(O)cc(-c3ncc4c(N5CC6CCC(C5)N6)nc(OCCN5CCC6(CC5)CCN(CC5CCN(c7ccc8c(c7Cl)CN(C7CCC(=O)NC7=O)C8=O)CC5)CC6)nc4c3F)c12` (centres unmarked) [Compound 220, 3-(4-chloro-5-{4-[(9-{2-[(4-{3,8-diazabicyclo[3.2.1]octan-3-yl}-7-(8-ethynyl-7-fluoro-3-hydroxynaphthalen-1-yl)-8-fluoropyrido[4,3-d]pyrimidin-2-yl)oxy]ethyl}-3,9-diazaspiro[5.5]undecan-3-yl)methyl]piperidin-1-yl}-1-oxo-2,3-dihydro-1H-isoindol-2-yl)piperidine-2,6-dione] the same measures were > 70% and < 5.1 µM.
For `C#Cc1c(F)ccc2cc(O)cc(-c3ncc4c(N5CC6CCC(C5)N6)nc(OCCN5CCC(CN6CCN(CC7CCN(c8ccc9c(c8)n(C)c(=O)n9C8CCC(=O)NC8=O)CC7)CC6)CC5)nc4c3F)c12` (centres unmarked) [Compound 221, 3-{5-[4-({4-[(1-{2-[(4-{3,8-diazabicyclo[3.2.1]octan-3-yl}-7-(8-ethynyl-7-fluoro-3-hydroxynaphthalen-1-yl)-8-fluoropyrido[4,3-d]pyrimidin-2-yl)oxy]ethyl}piperidin-4-yl)methyl]piperazin-1-yl}methyl)piperidin-1-yl]-3-methyl-2-oxo-2,3-dihydro-1H-1,3-benzodiazol-1-yl}piperidine-2,6-dione], in that order: > 70% and < 5.1 µM.
Take `C#Cc1c(F)ccc2cc(O)cc(-c3ncc4c(N5CC6CCC(C5)N6)nc(OCCN5CCC(CN6CCN(CC7CCN(c8ccc9c(c8)n(C(C)C)c(=O)n9C8CCC(=O)NC8=O)CC7)CC6)CC5)nc4c3F)c12` (centres unmarked) [Compound 222, 3-{5-[4-({4-[(1-{2-[(4-{3,8-diazabicyclo[3.2.1]octan-3-yl}-7-(8-ethynyl-7-fluoro-3-hydroxynaphthalen-1-yl)-8-fluoropyrido[4,3-d]pyrimidin-2-yl)oxy]ethyl}piperidin-4-yl)methyl]piperazin-1-yl}methyl)piperidin-1-yl]-2-oxo-3-(propan-2-yl)-2,3-dihydro-1H-1,3-benzodiazol-1-yl}piperidine-2,6-dione]: the greatest degradation seen (Dmax) was > 70% and the half-maximal degradation concentration (DC50) was < 5.1 µM.
